From ChEMBL document CHEMBL5608210 (Eur J Med Chem, 2024) come the findings set out here.

Activity calls are given as the source filed them. The calls are words filed in the database; no cut-off is given here.

Data set [1] has as its target T1, Fatty acid-binding protein, liver (Homo sapiens) (UniProt P07148).
T1 sequence (whole entry): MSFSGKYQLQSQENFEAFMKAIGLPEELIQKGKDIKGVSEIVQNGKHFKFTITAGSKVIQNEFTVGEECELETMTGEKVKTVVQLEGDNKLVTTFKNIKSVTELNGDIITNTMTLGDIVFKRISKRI
Briefly: Inhibition of human FABP1 at 9 uM incubated for 3 mins by fluorescence based analysis relative to control.

Data set [2] addresses T2, Fatty acid-binding protein, liver (Homo sapiens, UniProt P07148).
T2 sequence (P07148 whole entry): T1 sequence (whole entry)
In words: Inhibition of human FABP1 incubated for 3 mins by fluorescence based analysis.

Data set [3] addresses Fatty acid-binding protein, adipocyte (Homo sapiens, UniProt P15090). In words: Inhibition of FABP4 (unknown origin) incubated for 3 mins by fluorescence based analysis.
Data set [4] concerns Mus musculus. In words: Hepatoprotective activity in high-fat diet induced obese male C57BL/6 mouse model assessed reduction in hepatocyte steatosis at 20 mg/kg, po administered everyday for 4 weeks by H and E staining based analysis. Format: functional, organism-based.
In data set [5] the test system is Mus musculus. In words: Hepatoprotective activity in high-fat diet induced obese male C57BL/6 mouse model assessed as reduction in LDL-C level in serum at 20 mg/kg/day, po measured after 4 weeks by automatic biochemical analyzer. Format: functional, organism-based.
The test system of data set [6] is Mus musculus. Briefly: Anti-NAFLD activity in high-fat diet induced obese male C57BL/6 mouse model assessed as improvement in oral glucose tolerance at 20 mg/kg, po administered everyday for 4 weeks by oral glucose tolerance test. Format: functional, organism-based.
Data set [7] deals with Mus musculus. In words: Anti-NAFLD activity in high-fat diet induced obese male C57BL/6 mouse model assessed as reduction in AUC (0 to 90 mins) at 20 mg/kg, po administered everyday for 4 weeks by oral glucose tolerance test. Format: functional, organism-based.
Data set [8] in a line: Toxicity in high-fat diet induced obese male C57BL/6 mouse model assessed as effect on UA level in serum at 20 mg/kg/day, po measured after 4 weeks by automatic biochemical analyzer. Format: organism-based. The following applies: in vivo, 672 h.
Data set [9] in a line: Toxicity in high-fat diet induced obese male C57BL/6 mouse model assessed as effect on ALP level in serum at 20 mg/kg/day, po measured after 4 weeks by automatic biochemical analyzer. Format: organism-based. Conditions: in vivo, 672 h.
The subject of data set [10] is Mus musculus. Briefly: Hepatoprotective activity in high-fat diet induced obese male C57BL/6 mouse model assessed as decrease in TNF-alpha level in liver at 20 mg/kg/day, po measured after 4 weeks by ELISA method. Format: functional, organism-based. On the technique in general: An ELISA detects its analyte on a solid surface through an enzyme-linked reagent.
For data set [11], the system named is Mus musculus. Briefly: Hepatoprotective activity in high-fat diet induced obese male C57BL/6 mouse model assessed as decrease in IL-6 level in liver at 20 mg/kg/day, po measured after 4 weeks by ELISA method. Format: functional, organism-based.
Data set [12] concerns Mus musculus. In words: Hepatoprotective activity in high-fat diet induced obese male C57BL/6 mouse model assessed reduction in inflammatory cell infiltration at 20 mg/kg, po administered everyday for 4 weeks by H and E staining based analysis. Format: functional, organism-based.
In data set [13] the test system is Mus musculus. In words: Hepatoprotective activity in high-fat diet induced obese male C57BL/6 mouse model assessed as reduction in TC level in serum at 20 mg/kg/day, po measured after 4 weeks by automatic biochemical analyzer. Format: functional, organism-based.
Data set [14] deals with Mus musculus. Briefly: Hepatoprotective activity in high-fat diet induced obese male C57BL/6 mouse model assessed as reduction in TG level in serum at 20 mg/kg/day, po measured after 4 weeks by automatic biochemical analyzer. Format: functional, organism-based.
Data set [15] in a line: Toxicity in high-fat diet induced obese male C57BL/6 mouse model assessed as effect on ALT level in serum at 20 mg/kg/day, po measured after 4 weeks by automatic biochemical analyzer. Format: organism-based. Conditions: in vivo, 672 h.
The nature of data set [16]: Toxicity in high-fat diet induced obese male C57BL/6 mouse model assessed as effect on TBIL level in serum at 20 mg/kg/day, po measured after 4 weeks by automatic biochemical analyzer. Format: organism-based. Conditions: in vivo, 672 h.
Data set [17] can be described thus: Toxicity in high-fat diet induced obese male C57BL/6 mouse model assessed as effect on TBA level in serum at 20 mg/kg/day, po measured after 4 weeks by automatic biochemical analyzer. Format: organism-based. The following applies: in vivo, 672 h.
Data set [18] concerns Mus musculus. In words: Hepatoprotective activity in high-fat diet induced obese male C57BL/6 mouse model assessed as decrease in MCP-1 level in liver at 20 mg/kg/day, po measured after 4 weeks by ELISA method. Format: functional, organism-based.
Data set [19] is described as follows: Toxicity in high-fat diet induced obese male C57BL/6 mouse model assessed as effect on AST level in serum at 20 mg/kg/day, po measured after 4 weeks by automatic biochemical analyzer. Format: organism-based. The following applies: in vivo, 672 h.
Data set [20] deals with Mus musculus. Briefly: Hepatoprotective activity in high-fat diet induced obese male C57BL/6 mouse model assessed as decrease in IL-1 beta level in liver at 20 mg/kg/day, po measured after 4 weeks by ELISA method. Format: functional, organism-based.

Sequence of Fatty acid-binding protein, adipocyte (P15090 whole entry): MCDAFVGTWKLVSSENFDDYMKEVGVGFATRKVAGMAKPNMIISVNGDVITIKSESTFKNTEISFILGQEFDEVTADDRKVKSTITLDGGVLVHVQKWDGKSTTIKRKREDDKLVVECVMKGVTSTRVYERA

A word on the inhibition: it is the drop in the measured response relative to a control, in per cent. Take `O=C(O)CC(NC(=O)C1CCCN(S(=O)(=O)c2cccc3cccnc23)C1)C(=O)O` (stereo not given): in data set [1], the inhibition stood at 12.1%.
For orientation: IC50 means the midpoint of a concentration-inhibition curve. `CCc1c(-c2ccccc2)c(-c2ccccc2)nn1-c1ccccc1-c1cccc(OCC(=O)O)c1` gave an IC50 in data set [2] of 2710 nM.
As for `O=C(c1ccc(NS(=O)(=O)c2cccc3cccnc23)cc1)N1CCN(C(=O)C2(C(=O)O)CC2)CC1`, the inhibition in data set [1] is 29.9%.
`O=C(O)CCC(NC(=O)N1CCN(S(=O)(=O)c2cccc3cccnc23)CC1)C(=O)O` (stereo not given) registered an inhibition in data set [1] of 31.6%.
Compound `O=C(O)c1ccc(-c2ccccc2S(=O)(=O)N2CCN(S(=O)(=O)c3cccc4cccnc34)CC2)cc1` returned an inhibition in data set [1] of 68.3%. The compound further came in with a half-inhibitory concentration (IC50) in [2] of 2110 nM.
`O=C(O)C1(c2cccc(-c3ccc(OCc4c(-c5c(Cl)cccc5Cl)noc4C4CC4)cc3)c2)CC1` registered an IC50 in data set [3] of 6.2 µM.
Regarding `O=C(C1CCCN(S(=O)(=O)c2cccc3cccnc23)C1)N1CCNCC1` (stereo not given), the inhibition in data set [1] was 11.5%.
In turn, `O=C(O)c1cccc(NS(=O)(=O)c2cccc3cccnc23)c1` gave an inhibition in data set [1] of 8.28%.
For the compound `O=C(O)CC(=O)N1CCN(S(=O)(=O)c2ccc(-c3ccccc3)cc2)CC1`, in data set [1], the inhibition was 13.4%.
Still for that read-out and setting: for `O=C(O)CC(=O)N1CCN(C(=O)c2ccc(NS(=O)(=O)c3cccc4cccnc34)cc2)CC1` the value was 23.8%.
The compound `O=C(O)CCCCCCCOc1cccc(NS(=O)(=O)c2cccc3cccnc23)c1` gave an inhibition in [1] of 69.3%. This compound also had an IC50 in [2] of 3020 nM.
For `O=S(=O)(c1ccccc1-c1ccc(F)cc1)N1CCN(S(=O)(=O)c2cccc3cccnc23)CC1`, in that order: 52.7% and 5660 nM.
For the compound `O=C(O)CC(=O)N1CCN(S(=O)(=O)c2cccc3cccnc23)CC1`, in data set [1], the inhibition turned out to be 26.2%.
In [1], `O=S(=O)(c1ccc(-c2ccccc2)cc1)N1CCNCC1` displayed an inhibition of 0.18%.
In data set [1], `O=C(O)CNC(=O)CNC(=O)c1ccc(NS(=O)(=O)c2cccc3cccnc23)cc1` yielded an inhibition of 11.9%.
Still for that read-out and setting: for `O=C(O)CC[C@H](NC(=O)c1ccc(NS(=O)(=O)c2cccc3cccnc23)cc1)C(=O)O` the value was 12.2%; for `CC1CN(S(=O)(=O)c2cccc3cccnc23)CCN1C(=O)CC(=O)O` (stereo not given), 20.3%; for `O=C(O)C[C@H](NC(=O)c1ccc(NS(=O)(=O)c2cccc3cccnc23)cc1)C(=O)O`, 13.1%.
Same read-out and setting: for `O=C(O)C1(C(=O)N2CCN(S(=O)(=O)c3cccc4cccnc34)CC2)CC1` the value was 30.5%.
The same measure, in the same setting: for `CSCCC(NS(=O)(=O)c1cccc2cccnc12)C(=O)O` (stereo not given) the value was 20.9%; for `O=C(O)C1(C(=O)N2CCN(S(=O)(=O)c3ccc(-c4ccccc4)cc3)CC2)CC1`, 21.1%.
`O=C(O)CNS(=O)(=O)c1cccc2cccnc12`: the inhibition in [1] worked out at 4.26%.
Still for that read-out and setting: for `O=C(O)C1CCCN(S(=O)(=O)c2cccc3cccnc23)C1` (stereo not given) the value was 13.7%.
Same read-out and setting: for `O=C(O)CCC(NC(=O)C1CCCN(S(=O)(=O)c2cccc3cccnc23)C1)C(=O)O` (stereo not given) the value was 10.3%; for `O=C(O)CNC(=O)CNS(=O)(=O)c1cccc2cccnc12`, 10.1%; for `O=C(O)CCNC(=O)c1ccc(NS(=O)(=O)c2cccc3cccnc23)cc1`, 15.3%.
Compound `O=C(O)CCCCCCCOc1cccc(NS(=O)(=O)c2ccc(-c3ccccc3)cc2)c1` returned an inhibition in data set [1] of 73.5%. Also, the IC50 in data set [2] came to 3240 nM.
The like results for `O=C(O)CCCCCCCOc1ccc(NS(=O)(=O)c2cccc3cccnc23)cc1` were, in that order, 72.5% and 2440 nM.
The like results for `Cc1cc(F)ccc1-c1ccccc1S(=O)(=O)N1CCN(S(=O)(=O)c2cccc3cccnc23)CC1` were, in that order, 63.8% and 6110 nM.
In [1], `O=C(O)CCNS(=O)(=O)c1cccc2cccnc12` came in with an inhibition of 3.47%.
`O=C(O)CNC(=O)c1ccc(NS(=O)(=O)c2cccc3cccnc23)cc1`: the inhibition in [1] came out at 16.1%.
Regarding `O=C(O)c1ccc(NS(=O)(=O)c2cccc3cccnc23)cc1`, the inhibition in [1] amounted to 1.28%.
For the compound `N#Cc1ccc(-c2ccccc2S(=O)(=O)N2CCN(S(=O)(=O)c3cccc4cccnc34)CC2)cc1`, the inhibition in data set [1] is 61.2%. In addition, the IC50 in data set [2] was found to be 2660 nM.
For `O=S(=O)(c1ccccc1-c1cccc(O)c1)N1CCN(S(=O)(=O)c2cccc3cccnc23)CC1`, the result in data set [4], in data set [5], in data set [6], in data set [7], in data set [10] and in [11] was Active. In addition, the result in data set [12], in [13], in data set [14], in data set [18] and in data set [20] was Active. Further, the Activity result in data set [8], in [9], in data set [15], in data set [16], in [17] and in [19] was “Non-Toxic” each time. Besides, the results for the IC50 in data set [3] and in data set [2] were above 80 µM and 1180 nM, respectively. Besides, in data set [1], the inhibition is 78.1%.
